Values of other authors as cited in US9023374B2, “Sanitizing compositions” (priority 2009, dated 2015).
Where two headings read alike, the source gives them in different places.

Tests used:
feline calicivirus [1] = settings: room temperature
feline calicivirus [2] = tested on: feline calicivirus

CCO [70% w/w ethanol, ethanol]
log10 reduction of feline calicivirus (feline calicivirus [1]; after 8 minutes): < 2 log10 | log10 reduction of feline calicivirus (feline calicivirus [1]; after 30 minutes): 3 log10

CCO [ethanol]
inactivation of feline calicivirus (feline calicivirus [2]): failed to inactivate the virus
